Active and inactive are the calls of the source. The rule behind the calls is not given here.
Columns and labels:
[1] = Antioxidant activity assessed as DPPH radical scavenging activity measured for 30 mins by spectrophotometric analysis; assay type: functional
[2] = Antioxidant activity assessed as ABTS radical scavenging activity after 20 mins; assay type: functional
[3] = Antioxidant activity assessed as FRAP radical scavenging activity by measuring reduction of Fe3+ complex to Fe2+ analogue incubated for 30 mins by FRAP assay; assay type: functional
RAW264.7 [4] = assay: Cytotoxicity against mouse RAW264.7 cells at 10 uM measured after 24 hrs by MTT assay relative to control; assay type: functional
RAW264.7 [5] = assay: Antiinflammatory activity against mouse RAW264.7 cells assessed as inhibition of LPS-induced NO production at 10 uM preincubated for 4 hrs with compound followed by LPS stimulation and measured after 12 hrs; assay type: functional, cell-based; conditions: time 16.0 hrs
RAW264.7 [6] = assay: Upregulation of Nrf2 expression in H2O2 induced mouse RAW264.7 cells at 10 uM by Western blot analysis; assay type: functional, cell-based
RAW264.7 [7] = assay: Effect on KEAP1 level in H2O2 induced mouse RAW264.7 cells at 2.5 to 10 uM by Western blot analysis; assay type: functional, cell-based; conditions: dose 2.5-10 µM
RAW264.7 [8] = assay: Protection against H2O2 induced apoptosis in mouse RAW264.7 cells assessed as cell apoptosis rate at 10 uM preincubated for 3 hrs with compound followed by H2O2 stimulation and measured after 3 hrs by annexin V-FITC and PI staining based flow cytometry analysis; assay type: functional; conditions: time 6.0 hrs
RAW264.7 [9] = assay: Protection against H2O2 induced apoptosis in mouse RAW264.7 cells assessed as decrease in cleaved caspase-3 expression at 10 uM by Western blot analysis; assay type: functional, cell-based
RAW264.7 [10] = assay: Protection against H2O2 induced apoptosis in mouse RAW264.7 cells assessed as decrease in cleaved PARP expression at 10 uM by Western blot analysis; assay type: functional, cell-based
RAW264.7 [11] = assay: Antiinflammatory activity in LPS-stimulated mouse RAW264.7 cells assessed as effect on ERK phosphorylation level preincubated for 4 hrs followed by LPS stimulation for 12 hrs by Western blot analysis; assay type: functional, cell-based; conditions: time 16.0 hrs
RAW264.7 [12] = assay: Inhibition of H2O2 induced ROS production in mouse RAW264.7 cells assessed as decrease in ROS level at 10 uM preincubated for 3 hrs followed by H2O2 addition and measured after 3 hrs DCFH-DA staining based flow cytometry analysis; assay type: functional, cell-based; conditions: time 6.0 hrs
RAW264.7 [13] = assay: Inhibition of H2O2 induced ROS production in mouse RAW264.7 cells assessed as decrease in ROS level preincubated for 3 hrs followed by H2O2 addition and measured after 3 hrs DCFH-DA staining based flow cytometry analysis; assay type: functional, cell-based; conditions: dose 2.5-10 µM, time 6.0 hrs
RAW264.7 [14] = assay: Upregulation of Nrf2 expression in H2O2 induced mouse RAW264.7 cells by Western blot analysis; assay type: functional, cell-based; conditions: dose 2.5-10 µM
RAW264.7 [15] = assay: Upregulation of SOD mRNA expression in H2O2 induced mouse RAW264.7 cells at 2.5 to 10 uM by RT-qPCR analysis; assay type: functional, cell-based; conditions: dose 2.5-10 µM
RAW264.7 [16] = assay: Upregulation of CAT mRNA expression in H2O2 induced mouse RAW264.7 cells at 2.5 to 10 uM by RT-qPCR analysis; assay type: functional, cell-based; conditions: dose 2.5-10 µM
RAW264.7 [17] = assay: Upregulation of GPx mRNA expression in H2O2 induced mouse RAW264.7 cells at 2.5 to 10 uM by RT-qPCR analysis; assay type: functional, cell-based; conditions: dose 2.5-10 µM
RAW264.7 [18] = assay: Upregulation of HO-1 protein level in H2O2 induced mouse RAW264.7 cells at 2.5 to 10 uM by Western blot analysis; assay type: functional, cell-based; conditions: dose 2.5-10 µM
RAW264.7 [19] = assay: Upregulation of HO-1 mRNA expression in H2O2 induced mouse RAW264.7 cells at 2.5 to 10 uM by RT-qPCR analysis; assay type: functional, cell-based; conditions: dose 2.5-10 µM
RAW264.7 [20] = assay: Protection against H2O2 induced apoptosis in mouse RAW264.7 cells assessed as cell apoptosis rate at 10 uM preincubated for 3 hrs with compound followed by H2O2 stimulation and measured after 3 hrs by annexin V-FITC and PI staining based flow cytometry analysis (reference value: 15.63%); assay type: functional; conditions: time 6 hrs
RAW264.7 [21] = assay: Antiinflammatory activity in LPS-stimulated mouse RAW264.7 cells assessed as reduction in iNOS level preincubated for 4 hrs followed by LPS stimulation for 12 hrs by Western blot analysis; assay type: functional, cell-based; conditions: dose 2.5-10 µM, time 16.0 hrs
RAW264.7 [22] = assay: Antiinflammatory activity in LPS-stimulated mouse RAW264.7 cells assessed as reduction in iNOS mRNA expression preincubated for 4 hrs followed by LPS stimulation for 12 hrs by RT-qPCR analysis; assay type: functional, cell-based; conditions: dose 2.5-10 µM, time 16.0 hrs
RAW264.7 [23] = assay: Antiinflammatory activity in LPS-stimulated mouse RAW264.7 cells assessed as reduction in NF-kappaB p65 phosphorylation level at 10 uM preincubated for 4 hrs followed by LPS stimulation for 12 hrs by Western blot analysis; assay type: functional, cell-based; conditions: time 16.0 hrs
RAW264.7 [24] = assay: Antiinflammatory activity in LPS-stimulated mouse RAW264.7 cells assessed as inhibition of p38 phosphorylation level preincubated for 4 hrs followed by LPS stimulation for 12 hrs by Western blot analysis; assay type: functional, cell-based; conditions: dose 2.5-10 µM, time 16.0 hrs
RAW264.7 [25] = assay: Antiinflammatory activity in LPS-stimulated mouse RAW264.7 cells assessed as inhibition of JNK phosphorylation level preincubated for 4 hrs followed by LPS stimulation for 12 hrs by Western blot analysis; assay type: functional, cell-based; conditions: dose 2.5-10 µM, time 16.0 hrs

Molecule O=C(N/N=C\c1c(O)cc(O)cc1/C=C/c1ccc(O)cc1)c1ccccc1F has an IC50 [1] of 97.8 µM, an IC50 [2] of 17.3 µM and an Activity [3] of 1 µM.

Work on Cc1cccc(C(=O)N/N=C\c2c(O)cc(O)cc2/C=C/c2ccc(O)cc2)c1 yielded an IC50 [1] of 80.8 µM, an IC50 [2] of 18 µM and an Activity [3] of 0.9 µM.

Work on Nc1ccc(C(=O)N/N=C\c2c(O)cc(O)cc2/C=C/c2ccc(O)cc2)cc1 yielded an Activity (RAW264.7 [4]) of over 80%, an IC50 [1] of 46.2 µM and an IC50 [2] of 9.7 µM. It also gave an Activity [3] of 2.2 µM.

For O=C(N/N=C\c1c(O)cc(O)cc1/C=C/c1ccc(O)cc1)c1ccccc1, the IC50 [1] was 84.4 µM, the IC50 [2] was 13.4 µM and the Activity [3] was 0.7 µM.

Work on N#Cc1ccc(C(=O)N/N=C\c2c(O)cc(O)cc2/C=C/c2ccc(O)cc2)cc1 yielded an IC50 [1] of 84 µM, an IC50 [2] of 18.2 µM and an Activity [3] of 0.6 µM.

With O=C(N/N=C\c1c(O)cc(O)cc1/C=C/c1ccc(O)cc1)c1cccc(O)c1 the Activity (RAW264.7 [4]) was over 80%, the Activity (RAW264.7 [5]) was “Active” and the IC50 [1] was 76.6 µM. For the same molecule, the IC50 [2] was 11.7 µM and the Activity [3] was 1.3 µM.

In the case of Cc1ccc(C(=O)N/N=C\c2c(O)cc(O)cc2/C=C/c2ccc(O)cc2)cc1, the IC50 [1] is reported as 87 µM, the IC50 [2] is reported as 15.7 µM and the Activity [3] is reported as 0.5 µM.

Molecule O=C(N/N=C\c1c(O)cc(O)cc1/C=C/c1ccc(O)cc1)c1cccc(Cl)c1 has an IC50 [1] of 81.9 µM, an IC50 [2] of 15.2 µM and an Activity [3] of 0.9 µM.

In the case of O=C(N/N=C\c1c(O)cc(O)cc1/C=C/c1ccc(O)cc1)c1cccc([N+](=O)[O-])c1, the IC50 [1] is reported as 79.9 µM, the IC50 [2] is reported as 11.6 µM and the Activity [3] is reported as 0.4 µM.

With Oc1ccc(/C=C/c2cc(O)cc(O)c2)cc1 [RESVERATROL] the Activity (RAW264.7 [6]) was “inactive”, the Activity (RAW264.7 [7]) was “inactive” and the Activity (RAW264.7 [8]) was “inactive”. The Activity (RAW264.7 [9]) was “inactive”, the Activity (RAW264.7 [10]) was “inactive” and the Activity (RAW264.7 [11]) was “inactive”. For the same molecule, the IC50 [1] was 86.6 µM, the IC50 [2] was 18.4 µM and the Activity [3] was 0.9 µM.

With Nc1ccccc1C(=O)N/N=C\c1c(O)cc(O)cc1/C=C/c1ccc(O)cc1 the IC50 [1] was 39.8 µM, the IC50 [2] was 8.5 µM and the Activity [3] was 1.5 µM.

For O=C(N/N=C\c1c(O)cc(O)cc1/C=C/c1ccc(O)cc1)c1ccncc1, the Activity (RAW264.7 [4]) was over 80%, the IC50 [1] was 104 µM and the IC50 [2] was 13.5 µM. It also gave an Activity [3] of 1.1 µM.

For Cc1ccccc1C(=O)N/N=C\c1c(O)cc(O)cc1/C=C/c1ccc(O)cc1, the IC50 [1] was 97.3 µM, the IC50 [2] was 17.2 µM and the Activity [3] was 0.4 µM.

O=C(N/N=C\c1c(O)cc(O)cc1/C=C/c1ccc(O)cc1)c1ccc(F)cc1 showed an IC50 [1] of 86.3 µM, an IC50 [2] of 15.7 µM and an Activity [3] of 0.8 µM.

In the case of O=C(N/N=C\c1c(O)cc(O)cc1/C=C/c1ccc(O)cc1)c1ccc(Br)cc1, the IC50 [1] is reported as 84 µM, the IC50 [2] is reported as 13 µM and the Activity [3] is reported as 0.5 µM.

With Cc1c(C)c2c(c(C)c1O)CCC(C)(C(=O)O)O2 (stereo not given) [TROLOX] the IC50 [1] was 32.7 µM, the IC50 [2] was 14.7 µM and the Activity [3] was 2.5 µM.

With O=C(N/N=C\c1c(O)cc(O)cc1/C=C/c1ccc(O)cc1)c1ccccn1 the Activity (RAW264.7 [4]) was over 80%, the inhibition (RAW264.7 [12]) was “Active” and the Activity (RAW264.7 [5]) was “Active”. The IC50 [1] was 98.3 µM, the IC50 [2] was 17.1 µM and the Activity [3] was 0.9 µM.

With O=C(N/N=C\c1c(O)cc(O)cc1/C=C/c1ccc(O)cc1)c1cccc(F)c1 the IC50 [1] was 82.6 µM, the IC50 [2] was 12.5 µM and the Activity [3] was 0.8 µM.

For O=C(N/N=C\c1c(O)cc(O)cc1/C=C/c1ccc(O)cc1)c1ccccc1O, the IC50 [1] was 37.8 µM, the IC50 [2] was 12.8 µM and the Activity [3] was 0.9 µM.

For O=C(N/N=C\c1c(O)cc(O)cc1/C=C/c1ccc(O)cc1)c1ccc(O)cc1, the Activity (RAW264.7 [4]) was over 80%, the inhibition (RAW264.7 [12]) was “Active” and the inhibition (RAW264.7 [13]) was “Dose-Dependent Effect”. For the same molecule, the Activity (RAW264.7 [5]) was “Active”, the Activity (RAW264.7 [14]) was “Dose-Dependent Effect” and the Activity (RAW264.7 [7]) was “inactive”. For the same molecule, the Activity (RAW264.7 [15]) was “inactive”, the Activity (RAW264.7 [16]) was “inactive” and the Activity (RAW264.7 [17]) was “inactive”. The Activity (RAW264.7 [18]) was “Active”, the Activity (RAW264.7 [19]) was “Active” and the Activity (RAW264.7 [20]) was 26.58%. For the same molecule, the Activity (RAW264.7 [9]) was “Active”, the Activity (RAW264.7 [10]) was “Active” and the Activity (RAW264.7 [21]) was “Dose-Dependent Effect”. For the same molecule, the Activity (RAW264.7 [22]) was “Dose-Dependent Effect”, the Activity (RAW264.7 [23]) was “Active” and the Activity (RAW264.7 [24]) was “Dose-Dependent Effect”. For the same molecule, the Activity (RAW264.7 [25]) was “Dose-Dependent Effect”, the Activity (RAW264.7 [11]) was “inactive” and the IC50 [1] was 69.9 µM. For the same molecule, the IC50 [2] was 13 µM and the Activity [3] was 1.1 µM.

Work on O=C(N/N=C\c1c(O)cc(O)cc1/C=C/c1ccc(O)cc1)c1ccc(Cl)cc1 yielded an IC50 [1] of 89.5 µM, an IC50 [2] of 17.9 µM and an Activity [3] of 0.7 µM.

Molecule O=C(N/N=C\c1c(O)cc(O)cc1/C=C/c1ccc(O)cc1)c1cccnc1 has an Activity (RAW264.7 [4]) of over 80%, an IC50 [1] of 89.5 µM and an IC50 [2] of 12.7 µM. It also gave an Activity [3] of 1.2 µM.

From ChEMBL document CHEMBL5543081, “Design, synthesis and evaluation of antioxidant and anti-inflammatory activities of novel resveratrol derivatives as potential multifunctional drugs” (Eur J Med Chem, 2024)
